In US20090004185A1, “AMINO-SUBSTITUTED QUINAZOLINE DERIVATIVES AS INHIBITORS OF BETA-CATENIN/TCF-4 PATHWAY AND CANCER TREATMENT AGENTS” (WYETH, priority 2007, published 2009) one finds IC50 data, which are given here for 25 molecules.

For one experiment, the system named is β-catenin/Tcf-4. Description: cells. It counts as cell-based. As to conditions: 24 hours of incubation with compound, ratio Firefly/Renilla luciferase. A digest of the protocol: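 SW480-derived lines with integrated reporters (Tcf-4-driven firefly luciferase; SV40 firefly as specificity control; SV40 Renilla for cell number/toxicity), treated 24 hours with titrated compounds, final 0.316% DMSO. Dual-luciferase read-out; firefly/Renilla ratio as % of control, duplicate plates, IC50 (nM) from curve fit.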

A further experiment deals with SV40-Luc. Description: SV40-Luc control luciferase reporter assay, SV 5A8 cell line (SV40-Luc and SV40-R-Luc), control for non-specific inhibitors. It counts as cell-based, human. As to conditions: SV 5A8 cells derived from SW480, 24 hours of incubation with compound, ratio Firefly/Renilla luciferase. A digest of the protocol:
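Read-out is the firefly-to-Renilla luminescence ratio, expressed as % of control and averaged over duplicate plates, from which IC50s were fitted. Renilla under SV40 normalises for cell number and toxicity. SW480-derived lines carried integrated Tcf-4- or SV40-driven firefly reporters; compound exposure lasted 24 h.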

Where [1] appears, read: Homo sapiens, SW480, 24 h, Tcf 33.13 cells derived from SW480.
The mark [2] stands for this setting: Homo sapiens, Tcf22C11, 24 h, Tcf 22C11 cells derived from SW480.
The mark [3] stands for this setting: Tcf 22C11 cells derived from SW480.
Setting [4] is: Tcf 33.13 cells derived from SW480.

With `Cc1ccc2nc(N3CCCCC3)nc(NCc3ccc(NC(=O)c4ccc(F)cc4)cc3)c2c1` [Example 42, 4-fluoro-N-(4-{[(6-methyl-2-piperidin-1-ylquinazolin-4-yl)amino]methyl}phenyl)benzamide], the IC50 with β-catenin/Tcf-4 (setting [1]) is 2940 nM; in the experiment on β-catenin/Tcf-4 (setting [2]) it was 9250 nM; in the experiment with SV40-Luc (Homo sapiens, SV5A8, 24 h), over 10600 nM.

As to `CCN(CC)c1nc(NCc2ccc(NC(=O)c3ccc(F)cc3)cc2)c2cc(C)ccc2n1` [Example 43, N-[4-((2-(diethylamino)-6-methylquinazolin-4-ylamino)methyl)phenyl)-4-fluorobenzamide], the half-inhibitory concentration (IC50) with β-catenin/Tcf-4 (setting [1]) is 492 nM; with β-catenin/Tcf-4 (setting [2]) it was 738 nM; with SV40-Luc (Homo sapiens, SV5A8, 24 h), over 5460 nM.

For `Cc1ccc2nc(N3CCCC3)nc(NCc3ccc(NC(=O)c4ccc(F)cc4)cc3)c2c1` [Example 44, N-(4-((2-(1-azacyclopentyl)-6-methylquinazolin-4-ylamino)methyl)phenyl)-4-fluorobenzamide], the half-maximal inhibitory concentration (IC50) is over 22000 nM with β-catenin/Tcf-4 (setting [1]); over 22000 nM with β-catenin/Tcf-4 (setting [2]); over 22000 nM with SV40-Luc (Homo sapiens, SV5A8, 24 h).

For `Cc1ccc2nc(N3CCNCC3)nc(NCc3ccc(NC(=O)c4ccc(F)cc4)cc3)c2c1` [Example 45], the results for the half-maximal inhibitory concentration (IC50) in the experiment with β-catenin/Tcf-4 (setting [3]), in the experiment on β-catenin/Tcf-4 (setting [4]) and in the experiment on SV40-Luc were 1800 nM, 1480 nM and over 10600 nM, respectively.

As for `Cc1ccc2nc(N3CCN(C)CC3)nc(NCc3ccc(NC(=O)c4ccc(F)cc4)cc3)c2c1` [Example 46, 4-fluoro-N-((6-methyl-2-(4-methylpiperazin-1-yl)quinazolin-4-ylamino)methyl-phenyl)benzamide], the concentration for half-maximal inhibition (IC50) in the experiment on β-catenin/Tcf-4 (setting [3]), in the experiment on β-catenin/Tcf-4 (setting [4]) and in the experiment with SV40-Luc was over 20800 nM in each case.

As for `CNc1nc(NCc2ccc(NC(=O)c3ccccc3F)cc2)c2cc(C)ccc2n1` [Example 47, 2-fluoro-N-[4-({[6-methyl-2-(methylamino)quinazolin-4-yl]amino}methyl)phenyl]benzamide], the IC50 is 12800 nM in the experiment on β-catenin/Tcf-4 (setting [1]); 12000 nM in the experiment on β-catenin/Tcf-4 (setting [2]); over 24100 nM with SV40-Luc (Homo sapiens, SV5A8, 24 h).

With `Cc1ccc2nc(N3CCN(C)CC3)nc(NCc3ccc(NC(=O)c4ccc(F)cc4)cc3)c2c1` [Example 48, 4-fluoro-N-[4-({[6-methyl-2-(4-methylpiperazin-1-yl)quinazolin-4-yl]amino}methyl)phenyl]benzamide], the IC50 in the experiment with β-catenin/Tcf-4 (setting [1]) is over 20600 nM; in the experiment with β-catenin/Tcf-4 (setting [2]), over 20600 nM; with SV40-Luc (Homo sapiens, SV5A8, 24 h), over 20600 nM.

For `Cc1cc(C)c2nc(N3CCN(C)CC3)nc(NCc3ccc(NC(=O)c4ccc(F)cc4)cc3)c2c1` [Example 49, N-[4-({[6,8-dimethyl-2-(4-methylpiperazin-1-yl)quinazolin-4-yl]amino}methyl)phenyl]-4-fluorobenzamide], the IC50 with β-catenin/Tcf-4 (setting [1]) was over 2510 nM; with β-catenin/Tcf-4 (setting [2]) it was over 2510 nM; with SV40-Luc (Homo sapiens, SV5A8, 24 h), over 10000 nM.

Turning to `Cc1ccc2nc(N3CCN[C@@H](C)C3)nc(NCc3ccc(NC(=O)c4ccc(F)cc4)cc3)c2c1` [Example 51, 4-fluoro-N-{4-[({6-methyl-2-[(3S)-3-methylpiperazin-1-yl]quinazolin-4-yl}amino)methyl]phenyl}benzamide], the IC50 was 987 nM in the experiment with β-catenin/Tcf-4 (setting [1]); 1070 nM in the experiment on β-catenin/Tcf-4 (setting [2]); over 5160 nM with SV40-Luc (Homo sapiens, SV5A8, 24 h).

Consider `Cc1cc(C)c2nc(N(C)C)nc(NCc3ccc(NC(=O)c4ccc(F)cc4)cc3)c2c1` [Example 52, N-[4-({[2-(dimethylamino)-6,8-dimethylquinazolin-4-yl]amino}methyl)phenyl]-4-fluorobenzamide], for which the IC50 was 1310 nM with β-catenin/Tcf-4 (setting [1]); 1650 nM in the experiment on β-catenin/Tcf-4 (setting [2]); over 22500 nM in the experiment with SV40-Luc (Homo sapiens, SV5A8, 24 h).

Regarding `Cc1ccc2nc(N(C)C)nc(NCc3ccc(NC(=O)c4ccc(Cl)cc4)cc3)c2c1` [Example 53, 4-chloro-N-[4-({[2-(dimethylamino)-6-methylquinazolin-4-yl]amino}methyl)phenyl]benzamide], the half-inhibitory concentration (IC50) in the experiment with β-catenin/Tcf-4 (setting [1]) was 306 nM; in the experiment with β-catenin/Tcf-4 (setting [2]) it was 462 nM; with SV40-Luc (Homo sapiens, SV5A8, 24 h), over 2800 nM.

In the case of `CCOC(=O)N1CCN(c2nc(NCc3ccc(NC(=O)c4ccc(F)cc4)cc3)c3cc(C)ccc3n2)CC1` [Example 54, Ethyl 4-[4-({4-[(4-fluorobenzoyl)amino]benzyl}amino)-6-methylquinazolin-2-yl]piperazine-1-carboxylate], the 50% inhibitory concentration (IC50) in the experiment on β-catenin/Tcf-4 (setting [1]) is 846 nM; with β-catenin/Tcf-4 (setting [2]), 1230 nM; with SV40-Luc (Homo sapiens, SV5A8, 24 h), over 18400 nM.

For the molecule `Cc1ccc2nc(N3CCN(c4ccccn4)CC3)nc(NCc3ccc(NC(=O)c4ccc(F)cc4)cc3)c2c1` [Example 55, 4-fluoro-N-[4-({[6-methyl-2-(4-pyridin-2-ylpiperazin-1-yl)quinazolin-4-yl]amino}methyl)phenyl]benzamide], the IC50 was 3260 nM in the experiment on β-catenin/Tcf-4 (setting [1]); 8650 nM with β-catenin/Tcf-4 (setting [2]); over 18300 nM in the experiment on SV40-Luc (Homo sapiens, SV5A8, 24 h).

In the case of `Cc1ccc2nc(N3CCCCCC3)nc(NCc3ccc(NC(=O)c4ccc(F)cc4)cc3)c2c1` [Example 56, N-(4-{[(2-azepan-1-yl-6-methylquinazolin-4-yl)amino]methyl}phenyl)-4-fluorobenzamide], the IC50 is 2010 nM in the experiment with β-catenin/Tcf-4 (setting [1]); 1740 nM with β-catenin/Tcf-4 (setting [2]); over 5170 nM with SV40-Luc (Homo sapiens, SV5A8, 24 h).

`CCN1CCN(c2nc(NCc3ccc(NC(=O)c4ccc(F)cc4)cc3)c3cc(C)ccc3n2)CC1` [Example 57, N-[4-({[2-(4-ethylpiperazin-1-yl)-6-methylquinazolin-4-yl]amino}methyl)phenyl]-4-fluorobenzamide]: the half-maximal inhibitory concentration (IC50) was 1600 nM in the experiment with β-catenin/Tcf-4 (setting [1]); 923 nM with β-catenin/Tcf-4 (setting [2]); over 10000 nM with SV40-Luc (Homo sapiens, SV5A8, 24 h).

With `Cc1ccc2nc(N(C)Cc3ccccn3)nc(NCc3ccc(NC(=O)c4ccc(F)cc4)cc3)c2c1` [Example 58, 4-fluoro-N-{4-[({6-methyl-2-[methyl(pyridin-2-ylmethyl)amino]quinazolin-4-yl}amino)methyl]phenyl}benzamide], the IC50 in the experiment with β-catenin/Tcf-4 (setting [1]) came out at 2080 nM; in the experiment on β-catenin/Tcf-4 (setting [2]), 2500 nM; in the experiment on SV40-Luc (Homo sapiens, SV5A8, 24 h), 4190 nM.

For the molecule `CN(C)c1ccc(-c2ccc3nc(N(C)C)nc(NCc4ccc(NC(=O)c5ccc(F)cc5)cc4)c3c2)cn1` [Example 59, N-{4-[({2-(dimethylamino)-6-[6-(dimethylamino)pyridin-3-yl]quinazolin-4-yl}amino)methyl]phenyl}-4-fluorobenzamide], the IC50 was 453 nM in the experiment on β-catenin/Tcf-4 (setting [1]); 229 nM in the experiment on β-catenin/Tcf-4 (setting [2]); over 2330 nM with SV40-Luc (Homo sapiens, SV5A8, 24 h).

Turning to `CN(C)c1nc(NCc2ccc(NC(=O)c3ccc(F)cc3)cc2)c2cc(F)ccc2n1` [Example 60, N-[4-({[2-(dimethylamino)-6-fluoroquinazolin-4-yl]amino}methyl)phenyl]-4-fluorobenzamide], the IC50 in the experiment on β-catenin/Tcf-4 (setting [1]) was 1950 nM; in the experiment on β-catenin/Tcf-4 (setting [2]), 5390 nM; with SV40-Luc (Homo sapiens, SV5A8, 24 h), over 11500 nM.

On to `CC(C)c1ccc2c(NCc3ccc(NC(=O)c4ccc(F)cc4)cc3)nc(N(C)C)nc2c1` [Example 61, N-[4-({[2-(dimethylamino)-7-isopropylquinazolin-4-yl]amino}methyl)phenyl]-4-fluorobenzamide], for which the IC50 in the experiment on β-catenin/Tcf-4 (setting [1]) is 327 nM; in the experiment with β-catenin/Tcf-4 (setting [2]), 532 nM; with SV40-Luc (Homo sapiens, SV5A8, 24 h) it was over 5060 nM.

Take `CC(C)c1ccc2c(NCc3ccc(NC(=O)c4ccc(Cl)nc4)cc3)nc(N(C)C)nc2c1` [Example 62, 6-chloro-N-[4-({[2-(dimethylamino)-7-isopropylquinazolin-4-yl]amino}methyl)phenyl]nicotinamide]: the IC50 was 808 nM in the experiment on β-catenin/Tcf-4 (setting [1]); 1110 nM with β-catenin/Tcf-4 (setting [2]); over 9780 nM in the experiment with SV40-Luc (Homo sapiens, SV5A8, 24 h).

Take `CC(C)c1ccc2c(NCc3ccc(NC(=O)C4CCN(Cc5ccccc5)CC4)cc3)nc(N(C)C)nc2c1` [Example 63, 1-benzyl-N-[4-({[2-(dimethylamino)-7-isopropylquinazolin-4-yl]amino}methyl)phenyl]piperidine-4-carboxamide]: the IC50 is 1190 nM with β-catenin/Tcf-4 (setting [1]); 2150 nM in the experiment on β-catenin/Tcf-4 (setting [2]); over 8720 nM in the experiment on SV40-Luc (Homo sapiens, SV5A8, 24 h).

Turning to `Cc1c(F)ccc2c(NCc3ccc(NC(=O)c4ccc(Cl)nc4)cc3)nc(N(C)C)nc12` [Example 64, 6-chloro-N-[4-({[2-(dimethylamino)-7-fluoro-8-methylquinazolin-4-yl]amino}methyl)phenyl]nicotinamide], the IC50 with β-catenin/Tcf-4 (setting [1]) is 8960 nM; in the experiment on β-catenin/Tcf-4 (setting [2]) it was 11100 nM; with SV40-Luc (Homo sapiens, SV5A8, 24 h), over 10800 nM.

`CNc1nc(NCc2ccc(NC(=O)c3ccc(Cl)cc3)cc2)c2cc(-c3ccco3)cc(C)c2n1` [Example 67, 4-chloro-N-[4-({[6-(2-furyl)-8-methyl-2-(methylamino)quinazolin-4-yl]amino}methyl)phenyl]benzamide]: the IC50 was 1450 nM with β-catenin/Tcf-4 (setting [1]); 1210 nM with β-catenin/Tcf-4 (setting [2]); over 10000 nM with SV40-Luc (Homo sapiens, SV5A8, 24 h).

Consider `CN(C)c1nc(NCc2ccc(NC(=O)c3ccc(F)cc3)cc2)c2cc(I)ccc2n1` [Example 68, N-[4-({[2-(dimethylamino)-6-iodoquinazolin-4-yl]amino}methyl)phenyl]-4-fluorobenzamide], for which the concentration for half-maximal inhibition (IC50) in the experiment on β-catenin/Tcf-4 (setting [1]) was 400 nM; with β-catenin/Tcf-4 (setting [2]), 530 nM; in the experiment on SV40-Luc (Homo sapiens, SV5A8, 24 h), over 4620 nM.

Regarding `CN(C)CC#Cc1ccc2nc(N(C)C)nc(NCc3ccc(NC(=O)c4ccc(F)cc4)cc3)c2c1` [Example 69, N-{4-[({2-(dimethylamino)-6-[3-(dimethylamino)prop-1-yn-1-yl]quinazolin-4-yl}amino)methyl]phenyl}-4-fluorobenzamide], the IC50 with β-catenin/Tcf-4 (setting [1]) is 1940 nM; in the experiment on β-catenin/Tcf-4 (setting [2]), 2010 nM; with SV40-Luc (Homo sapiens, SV5A8, 24 h) it was over 20100 nM.
